Experimental data reported in US4994376A, “Detection of bacteroides gingivalis” (priority 1987, dated 1991).
Like-named read-outs stand apart in the source and are kept apart here. Peptide text beside a SMILES is read from it.

What was measured:
Format in all cases: biochemical
S. salivarius = assay: Aminopeptidase activity on β-naphthylamide substrates; conditions: β-naphthylamine liberated after 60 minutes, 37° C.
Outline: (§1)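 Chromogenic assay using N-CBz-glycyl-glycyl-L-arginine-β-naphthylamide, incubated 1 hour at 37° C. Liberated β-naphthylamine is coupled with Fast Garnet GBC (0.5 mg/ml) in 1M acetic acid pH 4.2 with 10% Tween 20 for 15 min at room temperature, then read at 525 nm.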

L. fermentum = assay: as above; conditions: strain ATCC 11581; β-naphthylamine liberated after 60 minutes, 37° C.
Outline: as §1

Lactobacillus casei = assay: as above; conditions: β-naphthylamine liberated after 60 minutes, 37° C.
Outline: as §1

A. equuli = assay: as above; conditions: strain ATCC 19392; β-naphthylamine liberated after 60 minutes, 37° C.
Outline: as §1

Haemophilus aphrophilus = assay: as above; conditions: β-naphthylamine liberated after 60 minutes, 37° C.
Outline: as §1

F. periodonticum = assay: as above; conditions: strain EK1-15; β-naphthylamine liberated after 60 minutes, 37° C.
Outline: as §1

A. suis = assay: as above; conditions: strain ATCC 15557; β-naphthylamine liberated after 60 minutes, 37° C.
Outline: as §1

A. seminis = conditions: strain ATCC 15768; β-naphthylamine liberated after 60 minutes, 37° C.
Outline: as §1

Streptococcus mitis = conditions: β-naphthylamine liberated after 60 minutes, 37° C.
Outline: as §1

Fusobacterium nucleatum = conditions: β-naphthylamine liberated after 60 minutes, 37° C.
Outline: as §1

[1] = tested on: Actinobacillus actinomycetemcomitans; conditions: β-naphthylamine liberated after 60 minutes, 37° C.
Outline: as §1

Actinomyces israeli = conditions: β-naphthylamine liberated after 60 minutes, 37° C.
Outline: as §1

"Anaerobic vibrio" = conditions: strain SN2T2; β-naphthylamine liberated after 60 minutes, 37° C.
Outline: as §1

S. sanguis = conditions: β-naphthylamine liberated after 60 minutes, 37° C.
Outline: as §1

Eikenella corrodens = conditions: strain BP1-6; β-naphthylamine liberated after 60 minutes, 37° C.
Outline: as §1

Campylobacter sputorum = conditions: strain Ba1-21; β-naphthylamine liberated after 60 minutes, 37° C.
Outline: as §1

V. parvula = conditions: strain ATCC 10790; β-naphthylamine liberated after 60 minutes, 37° C.
Outline: as §1

Veillonella sp. = conditions: strain SE1M2; β-naphthylamine liberated after 60 minutes, 37° C.
Outline: as §1

A. viscosus = conditions: β-naphthylamine liberated after 60 minutes, 37° C.
Outline: as §1

S. mutans = conditions: strain ATCC 25175; β-naphthylamine liberated after 60 minutes, 37° C.
Outline: as §1

B. loescheii = conditions: β-naphthylamine liberated after 60 minutes, 37° C.
Outline: (§2)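 Hydrolysis of N-CBz-glycyl-glycyl-L-arginine-β-naphthylamide over 1 h at 37 °C, then colour developed with Fast Garnet GBC (0.5 mg/ml) in 1M acetate pH 4.2 with 10% Tween 20 for 15 min at room temperature. Absorbance read at 525 nm against an enzyme-free control; activity given as nmol β-naphthylamine released in 60 min.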

B. mel. ss. intermedius = conditions: β-naphthylamine liberated after 60 minutes, 37° C.
Outline: as §2

C. ochracea = conditions: strain ATCC 27872; β-naphthylamine liberated after 60 minutes, 37° C.
Outline: as §2

B. levii = conditions: β-naphthylamine liberated after 60 minutes, 37° C.
Outline: as §2

Bacteroides gingivalis = conditions: β-naphthylamine liberated after 60 minutes, 37° C.
Outline: as §2

B. asaccharolyticus = conditions: β-naphthylamine liberated after 60 minutes, 37° C.
Outline: as §2

Capnocytophaga sp. = conditions: strain JD3-5; β-naphthylamine liberated after 60 minutes, 37° C.
Outline: as §2

`CSCCC(N)C(=O)Nc1ccc2ccccc2c1` (racemic) was tested, and the Aminopeptidase activity (S. salivarius; strain ATCC 9759) was 5 nmol, the Aminopeptidase activity (S. salivarius; strain ATCC 25975) was 1 nmol and the Aminopeptidase activity (L. fermentum) was 6 nmol. For the same molecule, the Aminopeptidase activity (Lactobacillus casei; strain ATCC 7469) was 1 nmol, the Aminopeptidase activity (Lactobacillus casei; strain ATCC 11578) was 9 nmol and the Aminopeptidase activity (Lactobacillus casei; strain ATCC 11582) was 9 nmol. It also gave an Aminopeptidase activity (A. equuli) of 0 nmol, an Aminopeptidase activity (Haemophilus aphrophilus; strain ATCC 13252) of 0 nmol and an Aminopeptidase activity (Haemophilus aphrophilus; strain ATCC 19415) of 0 nmol. It also gave an Aminopeptidase activity (Haemophilus aphrophilus; strain NCTC 5908) of 0 nmol, an Aminopeptidase activity (F. periodonticum) of 0 nmol and an Aminopeptidase activity (A. suis) of 0 nmol. The Aminopeptidase activity (A. seminis) was 0 nmol, the Aminopeptidase activity (Streptococcus mitis; strain ATCC 9815) was 52 nmol and the Aminopeptidase activity (Streptococcus mitis; strain ATCC 15909) was 12 nmol. It also gave an Aminopeptidase activity (Streptococcus mitis; strain ATCC 15911) of 13 nmol, an Aminopeptidase activity (Streptococcus mitis; strain ATCC 15912) of 17 nmol and an Aminopeptidase activity (Fusobacterium nucleatum; strain 2) of 1 nmol. For the same molecule, the Aminopeptidase activity (Fusobacterium nucleatum; strain ATCC 25586) was 0 nmol, the Aminopeptidase activity (Fusobacterium nucleatum; strain D31A-24) was 0 nmol and the Aminopeptidase activity ([1]; strain 67) was 0 nmol. It also gave an Aminopeptidase activity ([1]; strain 75) of 0 nmol, an Aminopeptidase activity ([1]; strain ATCC 29523) of 1 nmol and an Aminopeptidase activity ([1]; strain NCTC 9709) of 0 nmol. The Aminopeptidase activity ([1]; strain Y4) was 0 nmol, the Aminopeptidase activity (Actinomyces israeli; strain ATCC 12103) was 12 nmol and the Aminopeptidase activity (Actinomyces israeli; strain DK2-3) was 33 nmol. For the same molecule, the Aminopeptidase activity ("Anaerobic vibrio") was 0 nmol, the Aminopeptidase activity (S. sanguis; strain ATCC 10556) was 23 nmol and the Aminopeptidase activity (S. sanguis; strain ATCC 10557) was 18 nmol. It also gave an Aminopeptidase activity (Eikenella corrodens) of 3 nmol, an Aminopeptidase activity (Campylobacter sputorum) of 0 nmol and an Aminopeptidase activity (V. parvula) of 0 nmol. It also gave an Aminopeptidase activity (Veillonella sp.) of 0 nmol, an Aminopeptidase activity (A. viscosus; strain ATCC 19246) of 9 nmol and an Aminopeptidase activity (A. viscosus; strain T14V) of 7 nmol. The Aminopeptidase activity (S. mutans) was 5 nmol, the Aminopeptidase activity (B. loescheii; strain ATCC 15930) was 0 nmol and the Aminopeptidase activity (B. loescheii; strain VPI4196) was 0 nmol. The Aminopeptidase activity (B. mel. ss. intermedius; strain ATCC 25261) was 0 nmol, the Aminopeptidase activity (B. mel. ss. intermedius; strain ATCC 33563) was 0 nmol and the Aminopeptidase activity (B. mel. ss. intermedius; strain NCTC 9336) was 0 nmol. The Aminopeptidase activity (C. ochracea) was 118 nmol, the Aminopeptidase activity (B. levii; strain 18-1-5) was 0 nmol and the Aminopeptidase activity (B. levii; strain 18-1-8) was 1 nmol. It also gave an Aminopeptidase activity (Bacteroides gingivalis; strain 9-14K-1) of 0 nmol, an Aminopeptidase activity (Bacteroides gingivalis; strain 11-1-2) of 0 nmol and an Aminopeptidase activity (Bacteroides gingivalis; strain 381) of 0 nmol. The Aminopeptidase activity (Bacteroides gingivalis; strain 1021) was 0 nmol, the Aminopeptidase activity (Bacteroides gingivalis; strain ATCC 33277) was 0 nmol and the Aminopeptidase activity (Bacteroides gingivalis; strain FAYE 19m-1) was 0 nmol. The Aminopeptidase activity (B. asaccharolyticus; strain 536B) was 0 nmol, the Aminopeptidase activity (B. asaccharolyticus; strain ATCC 18569) was 0 nmol and the Aminopeptidase activity (B. asaccharolyticus; strain ATCC 25260) was 1 nmol. The Aminopeptidase activity (B. asaccharolyticus; strain ATCC 27067) was 2 nmol, the Aminopeptidase activity (B. asaccharolyticus; strain NY446) was 0 nmol and the Aminopeptidase activity (Capnocytophaga sp.) was 28 nmol.

Work on `CC(C)C[C@H](N)C(=O)NCC(=O)O` [Leu-Gly, Leucyl-glycine] (H-Leu-Gly-OH) yielded an Aminopeptidase activity (S. salivarius; strain ATCC 9759) of 0 nmol, an Aminopeptidase activity (S. salivarius; strain ATCC 25975) of 0 nmol and an Aminopeptidase activity (L. fermentum) of 2 nmol. The Aminopeptidase activity (Lactobacillus casei; strain ATCC 7469) was 0 nmol, the Aminopeptidase activity (Lactobacillus casei; strain ATCC 11578) was 2 nmol and the Aminopeptidase activity (Lactobacillus casei; strain ATCC 11582) was 1 nmol. For the same molecule, the Aminopeptidase activity (A. equuli) was 0 nmol, the Aminopeptidase activity (Haemophilus aphrophilus; strain ATCC 13252) was 0 nmol and the Aminopeptidase activity (Haemophilus aphrophilus; strain ATCC 19415) was 0 nmol. For the same molecule, the Aminopeptidase activity (Haemophilus aphrophilus; strain NCTC 5908) was 0 nmol, the Aminopeptidase activity (F. periodonticum) was 0 nmol and the Aminopeptidase activity (A. suis) was 0 nmol. It also gave an Aminopeptidase activity (A. seminis) of 0 nmol, an Aminopeptidase activity (Streptococcus mitis; strain ATCC 9815) of 0 nmol and an Aminopeptidase activity (Streptococcus mitis; strain ATCC 15909) of 0 nmol. The Aminopeptidase activity (Streptococcus mitis; strain ATCC 15911) was 124 nmol, the Aminopeptidase activity (Streptococcus mitis; strain ATCC 15912) was 0 nmol and the Aminopeptidase activity (Fusobacterium nucleatum; strain 2) was 2 nmol. For the same molecule, the Aminopeptidase activity (Fusobacterium nucleatum; strain ATCC 25586) was 0 nmol, the Aminopeptidase activity (Fusobacterium nucleatum; strain D31A-24) was 0 nmol and the Aminopeptidase activity ([1]; strain 67) was 2 nmol. It also gave an Aminopeptidase activity ([1]; strain 75) of 0 nmol, an Aminopeptidase activity ([1]; strain ATCC 29523) of 0 nmol and an Aminopeptidase activity ([1]; strain NCTC 9709) of 0 nmol. The Aminopeptidase activity ([1]; strain Y4) was 0 nmol, the Aminopeptidase activity (Actinomyces israeli; strain ATCC 12103) was 0 nmol and the Aminopeptidase activity (Actinomyces israeli; strain DK2-3) was 0 nmol. For the same molecule, the Aminopeptidase activity ("Anaerobic vibrio") was 0 nmol, the Aminopeptidase activity (S. sanguis; strain ATCC 10556) was 0 nmol and the Aminopeptidase activity (S. sanguis; strain ATCC 10557) was 0 nmol. For the same molecule, the Aminopeptidase activity (Eikenella corrodens) was 0 nmol, the Aminopeptidase activity (Campylobacter sputorum) was 0 nmol and the Aminopeptidase activity (V. parvula) was 0 nmol. It also gave an Aminopeptidase activity (Veillonella sp.) of 0 nmol, an Aminopeptidase activity (A. viscosus; strain ATCC 19246) of 0 nmol and an Aminopeptidase activity (A. viscosus; strain T14V) of 0 nmol. The Aminopeptidase activity (S. mutans) was 0 nmol, the Aminopeptidase activity (B. loescheii; strain ATCC 15930) was 20 nmol and the Aminopeptidase activity (B. loescheii; strain VPI4196) was 58 nmol. It also gave an Aminopeptidase activity (B. mel. ss. intermedius; strain ATCC 25261) of 9 nmol, an Aminopeptidase activity (B. mel. ss. intermedius; strain ATCC 33563) of 2 nmol and an Aminopeptidase activity (B. mel. ss. intermedius; strain NCTC 9336) of 11 nmol. The Aminopeptidase activity (C. ochracea) was 9 nmol, the Aminopeptidase activity (B. levii; strain 18-1-5) was 47 nmol and the Aminopeptidase activity (B. levii; strain 18-1-8) was 51 nmol. For the same molecule, the Aminopeptidase activity (Bacteroides gingivalis; strain 9-14K-1) was 6 nmol, the Aminopeptidase activity (Bacteroides gingivalis; strain 11-1-2) was 47 nmol and the Aminopeptidase activity (Bacteroides gingivalis; strain 381) was 76 nmol. It also gave an Aminopeptidase activity (Bacteroides gingivalis; strain 1021) of 16 nmol, an Aminopeptidase activity (Bacteroides gingivalis; strain ATCC 33277) of 48 nmol and an Aminopeptidase activity (Bacteroides gingivalis; strain FAYE 19m-1) of 6 nmol. The Aminopeptidase activity (B. asaccharolyticus; strain 536B) was 49 nmol, the Aminopeptidase activity (B. asaccharolyticus; strain ATCC 18569) was 25 nmol and the Aminopeptidase activity (B. asaccharolyticus; strain ATCC 25260) was 37 nmol. The Aminopeptidase activity (B. asaccharolyticus; strain ATCC 27067) was 51 nmol, the Aminopeptidase activity (B. asaccharolyticus; strain NY446) was 0 nmol and the Aminopeptidase activity (Capnocytophaga sp.) was 0 nmol.
